What was measured:
[1] = tested on: metastatic sentinel lymph node; assay: Detection of metastatic sentinel lymph node (ex vivo fluorescence, H & E staining, immunostaining); format: in vivo, rabbit; details: n = 4 for ICG group, n = 5 for ICG:MSA group
Protocol: A VX2 rabbit tumor model (Radiology, 2005; 234:423-430) was established, and after 2 weeks, 60 μM of each of ICG and ICG:MSA was injected subcutaneously into the peritumor of the tumor model. Then, the efficiency with which each of ICG and ICG:MSA detects a sentinel lymph node was examined using a fluorescence imaging system (developed by the applicant). Dissected normal and metastatic lymph nodes were confirmed ex vivo by fluorescence, and whether cancer metastasized to the lymph nodes was examined by H & E tissue staining and immunostaining.

lymph nodes = assay: Biodistribution after injection into the mouse footpad; format: in vivo
Protocol: Each of the ICG: MSA, prepared in Example 3, and ICG, was treated into U937 cells (Korean Cell Line Bank (KCLB) No. 21593.1) activated with PMA (phorbol 12-myristate 13-acetate, Sigma, USA) (FIG. 9a), and the distribution thereof in the cells was monitored. […] In addition, each of ICG:MSA and ICG was injected into the mouse footpad, and the biodistribution thereof was examined.

CC1(C)C(/C=C/C=C/C=C/C=C2\N(CCCCS(=O)(=O)O)c3ccc4ccccc4c3C2(C)C)=[N+](CCCCS(=O)(=O)[O-])c2ccc3ccccc3c21 [ICG, Indocyanine green]
Metastatic SLN rate [1]: 50%
Total [1]: 2
biodistribution (lymph nodes): distributed in the popliteal lymph nodes and did spread to the axillary lymph nodes within a short time

Reference: patent US10159756B2, “Complex of mannosyl serum albumin, method of preparing the same, optical imaging probe and kit comprising the same” (Korea University Research and Business Foundation, priority 2014, dated 2018)
